Where “and” joins values, the source holds several entries; their conditions need not be identical. Identical values can stand only once. Entries after “also recorded” stand apart in the source; their conditions may differ.
What was measured:
[1] = system: Valproate rat model of autism; experiment: In vivo EEG recordings in the CA3 area of hippocampus of head-restrained rats; details: VPA rats P13-15
Description: (§1) Time-mated female Wistar rats at gestational day E7-8 were housed under standard laboratory conditions. The in utero valproic acid (VPA) rodent model of autism spectrum disorders has been previously described in detail. Briefly, the sodium salt of VPA (Sigma-Aldrich) was dissolved in physiological saline solution to a concentration of 300 mg/ml. Pregnant rats received a single intra-peritoneal dose of 600 mg/kg on gestational day 12 (E12). The control dams received a single similar volume injection of saline at the same gestational time-point. Dams were housed individually and allowed to raise their own litters. The offspring were used for experiments on embryonic day 20 (E20) and postnatal (P) days 0, 2, 4, 7, 15 and 30 (after being weaned at P23). Experiments were carried out on offspring of either sex.
Head-fixed rat pups of age P13-P15 were prepared for extracellular recording under isoflurane anesthesia. The skin and periosteum were removed from the skull, which was then covered by glue and dental cement except for a 4-9 mm^2 window above the somatosensory cortex from one or two hemispheres for the silicon probe penetration (4.0-4.2 mm lateral to midline and 2.2-2.5 mm caudal to bregma) and for the reference electrode (1.0-1.5 mm lateral to midline and 6.0-6.5 mm caudal to bregma). The rat was positioned in the stereotaxic apparatus. A 1 mm-diameter burr hole was drilled in the skull; the dura was cut and removed. Recordings were made 1 h after recovery from anesthesia. Pups were kept restrained for <3 h and were closely monitored for signs of stress and to ensure that they spent a normal proportion of their time sleeping. The outside temperature was maintained between 35 and 36° C. The animals were kept in low-light conditions throughout all experiments. 16-site linear silicone probe (NeuroNexus Technologies) coupled to a direct-current amplifier (Molecular Devices) and dunked previously in fluorescent dye (DiI, Invitrogen) was slowly penetrated via the hole at […] depth under the angle 30° in the coronal plane. EEGs were recorded during 2 hours, using a 16-channel amplifier (A-M System, Inc.) and digitized at 5 kHz using Axoscope software (Molecular Deviced). Recordings were amplified and high-pass filtered at 0.3 Hz in Axoscope. Silicone probe location was verified postmortem via dye localization. To quantify the frequency band integral power the traces were band-pass filtered at frequency bands […]) θ-(4-7 Hz), α-(7-12 Hz), β-(12-25 Hz), Low γ-(25-60 Hz), High γ-(60-120 Hz) and Fast oscillations-(120-500 Hz)). Fast Fourier Transform (FFT) was applied with Clampfit (Molecular Devices). Integrals of FFT power spectra were taken and averaged with OriginPro (OriginLab Corporation).
(§2) Bumetanide (10 μM), Oxytocin (1 μM) and Isoguvacine (2 μM) were directly added to the perfusion solutions. Bumetanide pretreatment (2-2.5 mg/kg) was given to the dams in drinking water. All drugs used were purchased from Sigma. SSR126768A (Sanofi-Synthelabo) pretreatment (1 mg/kg) was given to the dams in drinking water.

[2] = system: hippocampal CA3 pyramidal cells; experiment: DFGABA in hippocampal CA3 pyramidal cells of offspring after in utero VPA / maternal bumetanide pretreatment; type: in vivo, rat; details: VPA rats (dams 600 mg/kg VPA i.p. at E12)
Description: as §1
(§3) Experiments were performed on fetuses and neonatal rat pups. We removed E20 rats from deeply anesthetized dams [subcutaneous injection of a mixture of xylazine (Rompun 2%; used at 0.05%) and ketamine (Imalgene 1000 used at 50 g/l)]. Hippocampal slices ([…] thick) were prepared using a Microm tissue slicer (International GmbH, Germany) as described previously (Tyzio et al. 2006 Science 314, 1788; Tyzio et al, 2008, Eur J. Neurosci. 27(10):2515-28). Slices were kept in oxygenated (95% O2/5% CO2) artificial cerebrospinal fluid (ACSF) of the following composition (in mM): NaCl 126, KCl 3.5, CaCl2 2.0, MgCl2 1.3, NaHCO3 25, NaH2PO4 1.2 and glucose 11 (pH 7.4) at room temperature (20-22° C.) at least 1 hour before use.
For recordings, slices were placed into a conventional fully submerged chamber superfused with ACSF at a rate of 2-3 ml/min at room temperature. Patch clamp recordings from visually identified CA3 pyramidal cells in cell-attached configuration were performed using EPC-10 amplifier (HEKA Elektronik Dr. Schulze GmbH, Lambrecht/Pfalz, Germany). Patch pipette solution for recordings of single GABAA channels contained (in mM): NaCl 120, KCl 5, TEA-Cl 20, 4-aminopyridine 5, CaCl2 0.1, MgCl2 10, glucose 10, Hepes-NaOH 10 buffered to pH 7.2-7.3 and GABA 2 μM. Analysis of currents through single channels and current-voltage relationships were performed using Clampfit 9.2 (Axon Instruments, Union City, Calif.). Recordings were digitized (10 kHz) online with Digidata-1200 interface card (Axon Instruments, Union City, Calif.) and analyzed offline with Axon package, MiniAnalysis (S (Synaptsoft, Decatur, Ga.), and Origin (Microcal Software, Northampton, Mass.).
as §2
If the polarity of GABA actions at delivery produces long terms effects in offsprings, then restoring low [Cl^−]i and inhibitory GABA at delivery might restore physiological parameters in juvenile rodents. To test this hypothesis, pregnant females were treated orally 1 day before delivery with bumetanide (2-2.5 mg/kg in drinking water) and juvenile offspring neurons recorded at P15. […] In VPA rats, GABAergic inputs are excitatory and contribute to hyperexcitability of the network. Bumetanide decreases [Cl^−]i and consequently reduces contribution of excitatory GABAergic inputs in the overall network activity.

[3] = system: Valproate rat model of autism; experiment: Isolation-induced ultrasonic vocalizations; type: in vivo; details: P4 VPA rats
Description: as §1
To induce ultrasonic vocalizations, […], and were placed into an isolation box (23×28×18 cm) located inside a sound attenuating isolation cubicle (54×57×41 cm; Coulbourn Instruments, Allentown, Pa., USA), and evaluated for ultrasonic vocalizations during a three minutes test. An ultrasound microphone (Avisoft UltraSoundGate Condenser microphone capsule CM16/CMPA, Avisoft Bioacoustics, Berlin, Germany), placed in the roof of the box, was sensitive to frequencies of 10 to 250 kHz. Vocalizations were recorded using the Avisoft Recorder software (version 4.2) with a sampling rate of 250 kHz in 16 bit format. For acoustical analysis, recordings were transferred to SASLab Pro (version 5.2; Avisoft Bioacoustics) and a fast Fourier transformation was conducted (512 FFT-length, 100% frame, Hamming window and 75% time window overlap). The accuracy of call detection was verified manually by an educated user. A Pearson correlation coefficient was computed to assess the relationship between Automatic and Manual analysis. There was 0.99 correlation between the two variables.
as §2

CA3 pyramidal cells = experiment: Effect of isoguvacine on spontaneous spiking, cell-attached recordings; type: cell-based, rat; details: result in words
Description: as §3
For recordings, slices were placed into a conventional fully submerged chamber superfused with ACSF at a rate of 2-3 ml/min at room temperature. Patch clamp recordings from visually identified CA3 pyramidal cells in cell-attached configuration were performed using EPC-10 amplifier (HEKA Elektronik Dr. Schulze GmbH, Lambrecht/Pfalz, Germany). […] Recordings were digitized (10 kHz) online with Digidata-1200 interface card (Axon Instruments, Union City, Calif.) and analyzed offline with Axon package, MiniAnalysis (S (Synaptsoft, Decatur, Ga.), and Origin (Microcal Software, Northampton, Mass.). […]

hippocampal slices = experiment: Effects of isoguvacine on spike frequency, extracellular field potential recordings in hippocampal slices; type: cell-based, rat; details: P15
Description: as §3
Extracellular field potentials and multi-unit activity (MUA) recordings Recording were made in the hippocampal slices using tungsten wire electrodes (diameter: 50 μm, California Fine Wire, Grover Beach, Calif.) and a low-noise multichannel DAM-8A amplifiers (WPI, GB; […]; gain: ×1000). The signals were digitized using an analogue-to-digital converter (Digidata 1440A, Axon Instruments, USA). pCLAMP 10.1, Clampfit 10.1 (Axon Instruments, USA), MiniAnalysis 6.03 (Synaptosoft, Decatur, Calif.) and Origin 7.5 (Microcal Software, USA) programs were used for the acquisition and analysis of the synaptic activities. Sampling interval per signal was 100 microseconds (10 kHz).
as §2

[4] = system: hippocampal CA3 pyramidal neurons; experiment: Whole-cell voltage clamp recordings of sEPSCs in offspring after maternal pretreatment; type: in vivo, rat; details: P15 rats, maternal SSR pretreatment (1 mg/kg in drinking water); result in words
Description: Standard whole-cell recordings were performed in coronal neocortical rat or mouse brain slices at room temperature (20-22° C.) from the soma of hippocampal CA3 neurons using an EPC-10 (HEKA Elektronik, Germany) amplifier and filtered at 3-10 kHz. The internal solution contained (in mM): 130 K-gluconate, 10 Na-gluconate, 4 NaCl, 4 MgATP, 4 phosphocreatine, 10 HEPES, and 0.3 GTP (pH 7.3 with KOH). Biocytin (final concentration 0.3-0.5%) was added to the pipette solution to label the neurons from which recordings were obtained. Neurons were visualized by using infrared DIC video microscopy. Spontaneous postsynaptic currents were recorded for […] at the reversal potentials for […] currents (−70 mV). It should be specifically noted that all recordings were made in normal ACSF (1.3 mM MgCl2). Stored data were analyzed using the Mini Analysis 6.0.3 (Synaptosoft Inc., Chapell Hill, N.C.) and Origin (MicroCal, Northampton, Mass.) software. To minimize potential sampling bias, the pups from at least three deliveries for each condition were studied. Data are expressed as mean±S.E.M.
Bumetanide (10 μM), Oxytocin (1 μM) and Isoguvacine (2 μM) were directly added to the perfusion solutions. Bumetanide pretreatment (2-2.5 mg/kg) was given to the dams in drinking water. All drugs used were purchased from Sigma. […]

## CCCC(CCC)C(=O)O [VPA, valproic acid]
[1]; frequency band 0.5-4 Hz
  Integral power spectra of EEG recordings, mean ± S.E.M.: 164.05 ± 39.44
[1]; frequency band 4-7 Hz
  Integral power spectra of EEG recordings, mean ± S.E.M.: 42.01 ± 12.03
[1]; frequency band 7-12 Hz
  Integral power spectra of EEG recordings, mean ± S.E.M.: 16.52 ± 4.32
[1]; frequency band 12-25 Hz
  Integral power spectra of EEG recordings, mean ± S.E.M.: 16.56 ± 4.78
[1]; frequency band 25-60 Hz
  Integral power spectra of EEG recordings, mean ± S.E.M.: 2.41 ± 0.62
[1]; frequency band 60-120 Hz
  Integral power spectra of EEG recordings, mean ± S.E.M.: 0.74 ± 0.17
[1]; frequency band 120-500 Hz
  Integral power spectra of EEG recordings, mean ± S.E.M.: 1.83 ± 0.42
[2]; age E20
  DFGABA (mV), mean ± S.E.: 8.5 ± 0.6 (n = 9) mV
[2]; age P0
  DFGABA (mV), mean ± S.E.: 8.2 ± 1.3 (n = 29) mV
[2]; age P2
  DFGABA (mV), mean ± S.E.: 11.7 ± 1.4 (n = 24) mV
[2]; age P7
  DFGABA (mV), mean ± S.E.: 9.7 ± 1.1 (n = 26) mV
[2]; age P15
  DFGABA (mV), mean ± S.E.: 10.2±1.0 mV and 10.2 ± 1 (n = 25 mV and 10.2 ± 1.0 (n = 25) mV
[2]; age P30
  DFGABA (mV), mean ± S.E.: 8.7 ± 0.8 (n = 25) mV
[3]
  Number of calls, isolation-induced USVs mean ± S.E.M: 1 ± 0.5 (n = 26)
  Total duration of calls, isolation-induced USVs mean ± S.E.M: 0.04 ± 0.02 (n = 26)

## O=C(O)C1=CCNCC1 [isoguvacine]
CA3 pyramidal cells; isoguvacine 2 μM, naive neurons, P0
  spike frequency in cell-attached recordings: inhibited or did not affected
CA3 pyramidal cells; isoguvacine, VPA neurons, P0 and P15
  spike frequency in cell-attached recordings: excitatory action; also recorded: increased
Hippocampal slices; VPA rats
  Effects of isoguvacine on frequency of spikes in extracellular recordings (% of control), mean ± S.E.: 213.5 ± 16.3 (n = 6), P < 0.001 % of control
Hippocampal slices; VPA rats, listed as Isoguvacine
  Effects of isoguvacine on frequency of spikes in extracellular recordings (% of control), mean ± S.E.: 213.5±16.3 % of control
Hippocampal slices; control rats
  Effects of isoguvacine on frequency of spikes in extracellular recordings (% of control), mean ± S.E.: 38.9 ± 5.1 (n = 3), P < 0.001 % of control
Hippocampal slices; control rats, listed as Isoguvacine
  Effects of isoguvacine on frequency of spikes in extracellular recordings (% of control), mean ± S.E.: 38.9±5.1 % of control

## CCN(Cc1cccnc1)C(=O)c1ccc(Cl)c([C@]2(C)C(=O)N(Cc3ccc(OC)cc3OC)c3ccc(Cl)cc32)c1 [SSR]
[4]
  spontaneous activity of neuronal networks (sEPSCs): increases

Source: patent publication US9592214B2, “Compounds for the treatment of autism in a baby child” (INSERM (INSTITUT NATIONAL DE LA SANTE ET DE LA RECHERCHE …, priority 2010, dated 2017)
